The source of these data is patent publication US12503707B2, “Methods, plants and compositions for overcoming nutrient suppression of mycorrhizal symbiosis” (Cambridge Enterprise Limited, priority 2020, dated 2025).

Test [1] relates to M. truncatula LysM receptor-like kinase (LysM RLK) genes. The test is described as follows: LysM RLK gene expression by qRT-PCR after GR24 and/or TIS108 treatment. Format: in vivo, Medicago truncatula. The settings on record: BNM plates 4 days. The procedure: FIGS. 24A-24E show the effects of nutrient starvation and strigolactone and/or karrikin treatment on M. truncatula RLK gene expression levels. […] As indicated from left to right above the heat map, M. truncatula was grown under limiting nitrate (−N, 0 mM NO3^− and 3.75 mM PO4^−), limiting phosphate (−P, 5 mM NO3^− and 0.0075 mM PO4^−), or limiting nitrate and phosphate (−N−P, 0 mM NO3^− and 0.0075 mM PO4^−). The relative expression level of each condition is normalized to expression when plants were grown under replete nitrate and replete phosphate (+N+P, 5 mM NO3^− and 3.75 mM PO4^−). As indicated from left to right below the heatmap, expression was measured either 5, 10, or 15 days after germination (“DAG”). The color scale indicates the relative expression levels, with black representing the lowest expression and light grey representing the highest expression. FIGS. 24B-24E show expression of M. truncatula genes after seedlings were grown on BNM plates for 4 days, and then treated with either DMSO (mock), 0.1 μM synthetic strigolactone analog GR24, 1 μM strigolactone-biosynthesis inhibitor TIS108, or both (0.1 μM GR24 and 1 μM TIS108) for 24 hours, as indicated on the x-axis. […] In each of FIGS. 24B-24E gene expression was determined by RT-qPCR, relative expression levels is on the y-axis, and the asterisks indicate the relative level of statistical significance as determined by a Student's t-test.
Gene expression was measured by qRT-PCR (FIGS. 2A-2B). Plants were grown on modified BNM plates (described above) with 100 nM AVG for four days, the plants were then carefully transferred to liquid BNM with the appropriate nutrient concentrations along with COs, PGN, flg22 and SmLCO, at a final concentration of 10^−7 M COs, 10^−7 M flg22, 0.4 mg/ml PGN and 10^−8 M SmLCO. After incubation for 6 h, plant roots were harvested and frozen in liquid nitrogen. […] An aliquot of each total RNA sample was used to determine RNA concentration and purity assessed on the NanoDrop ND-1000 spectral photometer (Peglab, Erlangen, Germany). RNA integrity was analyzed on the 2100 Bioanalyzer using RNA 6000 Nano LabChip Kits (Agilent Technologies). […] Gene expression was determined by an ABI 7500 using a SYBR green PCR master mix (Bio-Rad). […] Expression data were analyzed from the average of threshold cycle (CT) value, using an M. truncatula endogenous Histone 2A (H2A) gene as reference and fold induction calculated for treatment of elicitors relative to treatment with DMSO. […]
Gene expression was measured by RNA-seq. […] M. truncatula RLK gene expression levels were measured by qRT-PCR (FIGS. 24B-24E), as described in Example 1.
(Real-time PCR tracks product formation cycle by cycle.)

Test [2] has as its system M. truncatula root epidermal cells. The test is described as follows: Nuclear calcium imaging after CO/LCO treatment. It counts as cell-based, Medicago truncatula. The settings on record: lateral roots; −N−P and +N+P conditions. The procedure:
For calcium analyses M. truncatula seedlings were grown on Buffered Nodulation Media (BNM) agar with 100 nM Aminoethoxyvinylglycine (AVG; Sigma-Aldrich) until lateral roots emerged (FIGS. 1A-1B). […] The lateral roots were fixed in a small chamber made on a cover glass using vacuum grease, with 500 μl of BNM buffer. The roots were then treated with COs (CO4 or CO8), LCOs (non-sulfated LCO (NS-LCO) or a LCO derived from Sinorhizobium meliloti (SmLCO)), at the concentrations indicated in FIGS. 1A-1B. Recordings were collected on an inverted epifluorescence microscope (model TE2000; Nikon). Yellow cameleon YC3.6 was excited with an 458-nm laser and imaged using emission filters 476-486 nm for CFP and 529-540 nm for YFP. The calcium images were collected every 5 seconds with 1 second exposure and analyzed using Metafluor (Molecular Devices). Calcium traces used the intensity ratio of YFP to CFP. For better visualization of calcium signals, the traces were flattened to a single axis by subtracting the values with moving average as the following formula:
[formula] Where Sf is the flattened signal, So is the original signal, and MA is the moving average of the value. For each element i, MA is calculated as:
[formula] where m is the arbitrary number of points to calculate the average, w=[m/2] and xj is the signal at point j. M. truncatula Gene Expression

Test [3] concerns R. irregularis colonization of H. vulgare. The test is described as follows: Mycorrhizal colonization assay with R. irregularis. Format: in vivo, Hordeum vulgare. The following applies: 0.1 μM GR24 twice a week. On the procedure:
FIGS. 14A-14D provide the effects of treating H. vulgare plants with a strigolactone or with both a strigolactone and a CEP peptide. […] Plants were grown under high nitrate and high phosphate (5 mM NO3^− and 0.5 mM PO4^−) and cells were treated with 10^−7 M SmLCO. The top trace represents cells without any additional treatment, the middle trace represents cells that were pre-treated with 1 μM 5-deoxystrigol, and the bottom trace represents cells that were pre-treated with 1 μM 5-deoxystrigol and 1 μM CEP3. The scale bar indicates a span of 10 minutes, and the fractions indicate the number of cells that responded over the total number of cells analyzed. FIGS. 14B-14C provide the level of mycorrhizal colonization of H. vulgare when treated with the synthetic strigolactone analog GR24 under different nutrient conditions, as determined in two separate experiments. In FIG. 14B, colonization was measured 7 weeks post inoculation, and the x-axis indicates the nutrient conditions tested, and whether the plants were treated with GR24. […] In FIG. 14C, colonization was measured 6 weeks post inoculation, and the x-axis indicates the nutrient conditions tested, and whether the plants were treated with GR24. […] In FIGS. 14B-14C, the y-axis represents the percentage of roots colonized by mycorrhizal fungi, and the shading of each bar represents the fungal structure quantified. […]

Setting [4] is: then 24 hours, 0.1 μM GR24, 1 μM TIS108.

On to `O=C(c1ccccc1)C(CCCCOc1ccccc1)n1cncn1` (centres unmarked) [TIS108], for which the “LysM RLK gene expression compared to mock treatment” value in test [1] (then 1 μM TIS108 for 24 hours) is “either the same or lower”.

Take `CC(=O)N[C@H]1[C@H](O[C@H]2[C@H](O)[C@@H](NC(C)=O)C(O)O[C@@H]2CO)O[C@H](CO)[C@@H](O[C@@H]2O[C@H](CO)[C@@H](O[C@@H]3O[C@H](CO)[C@@H](O)[C@H](O)[C@H]3NC(C)=O)[C@H](O)[C@H]2NC(C)=O)[C@@H]1O` (some centres unmarked) [CO4]: the “nuclear symbiotic calcium oscillations (Cells spiking)” value in test [2] is on record as “promoted nuclear symbiotic oscillations”.

Consider `CC1=C[C@H](O/C=C2/C(=O)O[C@@H]3c4ccccc4C[C@H]23)OC1=O` [GR24], for which the “promotion of mycorrhizal colonization” value in test [3] (7 weeks post inoculation, no inhibitory effect of high phosphate seen) is recorded as “could not be observed”. Further, in test [3] (high phosphate (500 μM) and low nitrate (0.5 mM), 6 weeks post inoculation), the mycorrhizal colonization result is “promoted mycorrhizal colonization”. Moreover, in test [1] (setting [4]), the “MtKUF1 expression compared to mock treatment” value is reported as “significantly increased”, the “MtLYK8 expression compared to mock treatment” value is reported as “significantly increased” and the “MtLYK10 expression compared to mock treatment” value is “significantly increased”.

Regarding `CC(=O)N[C@H]1[C@H](O[C@H]2[C@H](O)[C@@H](NC(C)=O)[C@H](O[C@H]3[C@H](O)[C@@H](NC(C)=O)[C@H](O[C@H]4[C@H](O)[C@@H](NC(C)=O)C(O)O[C@@H]4CO)O[C@@H]3CO)O[C@@H]2CO)O[C@H](CO)[C@@H](O[C@@H]2O[C@H](CO)[C@@H](O[C@@H]3O[C@H](CO)[C@@H](O[C@@H]4O[C@H](CO)[C@@H](O[C@@H]5O[C@H](CO)[C@@H](O)[C@H](O)[C@H]5NC(C)=O)[C@H](O)[C@H]4NC(C)=O)[C@H](O)[C@H]3NC(C)=O)[C@H](O)[C@H]2NC(C)=O)[C@@H]1O` (some centres unmarked) [CO8], the “nuclear symbiotic calcium oscillations (Cells spiking)” value in test [2] is “promoted nuclear symbiotic oscillations”.
